From patent publication US8748666B2, “Preparation methods of methyl-D3-amine and salts thereof” (Suzhou Zelgen Biopharmaceutical Co., Ltd., priority 2010, dated 2014)

Tested on: human hepatocellular carcinoma SMMC-7721
Experiment: Inhibition of tumor growth of human hepatocellular carcinoma SMMC-7721 in nude mice xenograft model
Format: in vivo, Balb/c nu/nu nude mice
Protocol: 70 Balb/c nu/nu nude mice, 6 weeks old, female, were bought from Shanghai Experimental Animal Resource Center (Shanghai B&K Universal Group Limited).
SMMC-7721 cells were commercially available from Shanghai Institutes for Biological Science, CAS (Shanghai, China).
The establishment of tumor nude mice xenograft model: SMMC-7721 cells in logarithmic growth period were cultured. After cell number was counted, the cells were suspended in 1×PBS, and the concentration of the cell suspension was adjusted to 1.5×10^7/ml. The tumor cells were inoculated under the skin of right armpit of nude mice with a 1 ml syringe, 3×10^6/0.2 ml/mice. 70 nude mice were inoculated in total.
When the tumor size reached 30-130 mm^3, 58 mice were divided randomly into the different groups. The difference of the mean value of tumor volume in each group was less than 10% and drugs were started to be administrated.
Animal body weight and tumor size were tested twice a week during the experiment. Clinical symptoms were recorded every day. At the end of the administration, the tumor size was recorded by taking pictures. One mouse was sacrificed in each group and tumor tissue was taken and fixed in 4% paraformaldehyde. Observation was continued after the administration, and when the mean size of tumor was larger than 2000 mm^3, or the dying status appeared, the animals were sacrificed, gross anatomy was conducted, and the tumor tissue was taken and fixed in 4% paraformaldehyde.
The formula for calculating the tumor volume (TV) is: TV=a×b^2/2, wherein a, b independently represent the length and the breadth of the tumor. The formula for calculating the relative tumor volume (RTV) is: RTV=Vt/V0, wherein V0 is the tumor volume at the beginning of the administration, and Vt is the […] when measured. The index for evaluating the antitumor activity is relative tumor increment rate T/C (%), and the formula is: T/C (%)=(TRTV/CRTV)×100%, wherein, TRTV is the RTV of the treatment group, and CRTV is the RTV of the negative control group.
Evaluation standard for efficacy: it is effective if the relative tumor increment rate T/C (%) is ≦40% and p<0.05 by statistics analysis.

[1] = 10 mg/kg po qd x 2 weeks, at the end of administration
[2] = 30 mg/kg po qd x 2 weeks, at the end of administration
[3] = 100 mg/kg po qd x 2 weeks, at the end of administration (day 15)

Compound: [2H]C([2H])([2H])NC(=O)c1cc(Oc2ccc(NC(=O)Nc3ccc(Cl)c(C(F)(F)F)c3)cc2)ccn1 [CM4306, 4-(4-(3-(4-chloro-3-(trifluoromethyl)phenyl)ureido)-phenoxy)-2-(N-methyl)picolinamide, reference compound]
- relative tumor increment rate T/C % [1]: 56.9%
- relative tumor increment rate T/C % [2]: 40.6%
- relative tumor increment rate T/C % [3]: 32.2%

Compound: [2H]C([2H])([2H])NC(=O)c1cc(Oc2ccc(NC(=O)Nc3ccc(Cl)c(C(F)(F)F)c3)cc2)ccn1 [CM4307, 4-(4-(3-(4-chloro-3-(trifluoromethyl)phenyl)ureido)-phenoxy)-N-(methyl-d3)picolinamide]
- relative tumor increment rate T/C % [1]: 53.6%
- relative tumor increment rate T/C % [2]: 40.8%
- increase of relative value of tumor inhibition compared with CM4306 (32.2%/19.6%−1=64%) (100 mg/kg po qd x 2 weeks): about 60%
- relative tumor increment rate T/C % [3]: 19.6%
